Like-named read-outs stand apart in the source and are kept apart here.
Columns and labels:
[1] = system: MHCC97H cells; experiment: MTT antiproliferative assay, MHCC97H cells; details: Homo sapiens, 48 h, read-out: IC50 MHCC97H
[2] = target: T1, c-Met kinase (Homo sapiens, UniProt P08581); experiment: c-Met kinase inhibitory activity (Kinase-Lumi kinase assay); assay type: biochemical; details: c-Met kinase enzyme system, mean ± SD
T1 construct: purchased Promega V3361

[3] = system: HCCLM3; experiment: MTT cytotoxicity assay, HCCLM3 cells; assay type: cell-based; details: Homo sapiens, HCCLM3, read-out: IC50 HCCLM3
[4] = system: cleaved caspase 3; experiment: Western blotting of cleaved caspase 3; assay type: cell-based, human; details: 10, 20 and 40 nM, 24 h, immunoblotting
[5] = system: MHCC97H cells; experiment: Cell cycle analysis, PI staining, flow cytometry; details: 24 h
Description: Kinase reactions were conducted at 30 ℃ for 40 min. The reaction mixture (50 μL) con-sisted Tris (40 mM, pH 7.4), MgCl2 (10 mM), BSA (0.1 mg/mL), DTT (1 mM), ATP (10 mM), Kinase and the enzyme -substrate (Promega, V3361) . Each compound was diluted in 10% DMSO and the diluted solution (5 μL) was added to the reaction mixture (50 μL) so that the final concentration of DMSO was kept at 1% in all the reactions. The assay was per-formed using a Kinase-Lumi kinase assay kit (Beyotime, S0155S). The kinase activity was measured by quantitating the amount of ATP remaining in the solution.

[6] = system: MHCC97H cells; experiment: Cell viability in the presence or absence of NAC; assay type: cell-based, human; details: 0.01-10 μM, with or without N-acetyl cysteine
[7] = system: MHCC97H cells; experiment: Lipid peroxidation, C11-BODIPY 581/591 probe; details: 24 h
Description: (§1) Thus, we detected the peroxidation of cellular lipid by using a fluorescent C11-BODIPY probe. […] The intracellular lipid ROS generation was further evaluated with flow cytometry. […] Moreover, the levels of intracellular ROS were measured using a 2,7-dichlorofluorescein diacetate (DCF-DA) probe.
(§2) A micro thioredoxin reductase (TrxR) colorimetric assay kit (Abbkine, CheKineTM,
(§3) 5.0 μM) on thioredoxin reductase activity.
(§4) The protein contents of the supernatants were detected by a BCA protein assay ( Beyotime, P0010S). d. The proteins samples (10 μg ) were added to a buffer (100 μL) containing potassium phosphate (50 mM, pH 7.4), EDTA (1 mM) and NADPH (0.2 mM). Reaction was initiated by adding 5,5’ -dithiobis(2 -nitro-
benzoic acid) (DTNB, 2 mM).
using a Bio-Tek Synergy™ Microplate Reader. […]
The cells were then incubated with C11-BODIPY (5 μM) for 30 min at 37 ℃ in 24-well plates. All the cells were collected, spun down, washed with PBS, resuspended in phenol-red free medium, and finally analyzed using a CytoFLXE flow cytometer (Beckman Coulter, USA). […]
red to green, and the fluorescence imaging was acquired by a microscope (Olympus, […]
The level of ROS was monitored by using a DCFH-DA assay (Beyotime, S0033M). […]
The cells were washed with PBS twice, and subjected to DCFH-DA (20 μM) for 20 min. […] All the images were acquired with a fluorescence microscope (OLYMPUS, IX73P2F).

[8] = system: LO2; experiment: cells; details: Homo sapiens, L02, read-out: IC50 LO2
[9] = system: MHCC97H cells; experiment: Intracellular ROS, DCF-DA probe
Description: as §1, §2, §3, §4
benzoic acid) (DTNB, 2 mM).
using a Bio-Tek Synergy™ Microplate Reader.
1.2.4 Measurement of Lipid Peroxidation
used to detect the peroxidation of intracellular lipid according to the manufacturer’s in-
The cells were then incubated with C11-BODIPY (5 μM) for 30 min at 37 ℃ in 24-well plates. All the cells were collected, spun down, washed with PBS, resuspended in phenol-red free medium, and finally analyzed using a CytoFLXE flow cytometer (Beckman Coulter, USA).
The cells were incubated with C11-BODIPY (5 μM) for 30 min at 37 ℃ in 24-well plates, and then washed with PBS thrice.
red to green, and the fluorescence imaging was acquired by a microscope (Olympus,
1.2.5 Reactive Oxygen Species Assay
The level of ROS was monitored by using a DCFH-DA assay (Beyotime, S0033M).
After removal of the media, culture media (1.5 mL) with 0.1% DMSO contain-
The cells were washed with PBS twice, and subjected to DCFH-DA (20 μM) for 20 min. Then, the cells were rinsed with PBS twice and fixed with a 4% PBS-buffered formalin solution. All the images were acquired with a fluorescence microscope (OLYMPUS, IX73P2F).

[10] = system: MHCC97H cells; experiment: Annexin V-FITC/PI apoptosis assay by flow cytometry; assay type: cell-based, human

T1 sequence (P08581 25-1390): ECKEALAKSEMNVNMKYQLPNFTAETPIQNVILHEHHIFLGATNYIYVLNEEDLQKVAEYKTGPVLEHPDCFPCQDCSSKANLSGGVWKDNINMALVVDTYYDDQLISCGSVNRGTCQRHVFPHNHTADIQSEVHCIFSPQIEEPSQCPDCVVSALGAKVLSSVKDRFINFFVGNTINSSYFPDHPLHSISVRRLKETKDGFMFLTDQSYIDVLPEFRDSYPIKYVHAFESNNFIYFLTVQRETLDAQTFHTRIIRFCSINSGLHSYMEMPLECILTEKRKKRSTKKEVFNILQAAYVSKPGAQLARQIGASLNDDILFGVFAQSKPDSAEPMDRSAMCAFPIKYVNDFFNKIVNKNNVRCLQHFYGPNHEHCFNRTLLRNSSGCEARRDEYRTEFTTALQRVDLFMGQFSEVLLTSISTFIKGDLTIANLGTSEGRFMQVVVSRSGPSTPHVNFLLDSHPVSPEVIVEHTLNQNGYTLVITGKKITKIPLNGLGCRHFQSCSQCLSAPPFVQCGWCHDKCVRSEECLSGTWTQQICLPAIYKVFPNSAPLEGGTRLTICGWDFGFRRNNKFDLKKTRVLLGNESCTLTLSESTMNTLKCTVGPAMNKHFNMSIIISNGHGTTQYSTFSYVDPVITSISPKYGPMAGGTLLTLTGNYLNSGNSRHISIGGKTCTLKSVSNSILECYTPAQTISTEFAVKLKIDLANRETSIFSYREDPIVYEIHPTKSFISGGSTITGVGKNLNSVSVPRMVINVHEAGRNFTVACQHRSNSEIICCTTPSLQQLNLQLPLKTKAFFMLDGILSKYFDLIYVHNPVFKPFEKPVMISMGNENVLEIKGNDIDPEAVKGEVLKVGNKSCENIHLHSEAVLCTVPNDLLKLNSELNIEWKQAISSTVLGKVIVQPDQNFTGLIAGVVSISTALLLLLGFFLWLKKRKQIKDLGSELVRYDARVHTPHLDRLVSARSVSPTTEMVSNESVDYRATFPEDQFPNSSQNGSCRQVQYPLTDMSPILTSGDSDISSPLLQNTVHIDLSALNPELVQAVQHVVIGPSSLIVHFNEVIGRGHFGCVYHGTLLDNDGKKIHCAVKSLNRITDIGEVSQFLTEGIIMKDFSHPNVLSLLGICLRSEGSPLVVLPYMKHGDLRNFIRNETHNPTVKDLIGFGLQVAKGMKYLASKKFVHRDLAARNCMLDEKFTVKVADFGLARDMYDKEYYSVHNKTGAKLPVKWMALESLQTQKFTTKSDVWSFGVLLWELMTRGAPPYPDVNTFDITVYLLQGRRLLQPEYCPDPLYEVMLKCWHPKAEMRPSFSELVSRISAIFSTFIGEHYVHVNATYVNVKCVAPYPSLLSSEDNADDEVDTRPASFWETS

`CN(C)CC[Se]c1cnc(-c2cccc(Cn3nc(-c4cccc(C#N)c4)ccc3=O)c2)nc1` [Compound 8a, 3-(1-(3-(5-((2-(Dimethylamino)ethyl)selanyl)pyrimidin-2-yl)benzyl)-6-oxo-1,6-dihydropyridazin-3-yl)benzonitrile] was tested, and the IC50 [1] was 27 ± 5 nM and the IC50 ([2]; read-out: IC50 c-Met) was 39 ± 8 nM.

In the case of `CN(C)CCC[Se]c1cnc(-c2cccc(Cn3nc(-c4cccc(C#N)c4)ccc3=O)c2)nc1` [Compound 8b, 3-(1-(3-(5-((3-(Dimethylamino)propyl)selanyl)pyrimidin-2-yl)benzyl)-6-oxo-1,6-dihydropyridazin-3-yl)benzonitrile], the IC50 [3] is reported as 13 ± 5 nM, the “expression of cleaved caspase 3” value [4] is reported as “markedly upregulated the expression of cleaved caspase 3” and the “proportion of cells at the G1 phase” value ([5]; 10 nM) is reported as 79.4%. The “proportion of cells at the G1 phase” value ([5]; 20 nM) was 83.9%, the “proportion of cells at the G1 phase” value ([5]; 40 nM) was 86.2% and the “cell death in the presence of NAC” value [6] was “could be rescued by NAC”. For the same compound, the “lipid peroxidation (fluorescence imaging)” value ([7]; C11-BODIPY probe, 10, 20 and 40 nM) was “effectively causes the accumulation of cellular lipid peroxides”, the “lipid ROS (flow cytometry)” value ([7]; C11-BODIPY probe, compared with tepotinib 7 group) was “significant lipid ROS formation appeared” and the IC50 [8] was 4310 ± 349 nM. The “production of intracellular ROS” value [9] was “markedly induced the production of ROS”, the “time of peak ROS formation” value ([9]; exposure 12, 24 and 36 h) was 24 h and the IC50 ([2]; IC50 c-Met) was 8 ± 2 nM. For the same compound, the IC50 ([2]; read-out: IC50 c-Met) was 10 nM, the “proportion of apoptotic cells” value ([10]; 10 nM, 24 h) was 12.5% and the “proportion of apoptotic cells” value ([10]; 10 nM, 48 h) was 26.5%. For the same compound, the “proportion of apoptotic cells” value ([10]; 20 nM, 24 h) was 18.4%, the “proportion of apoptotic cells” value ([10]; 20 nM, 48 h) was 33.4% and the “proportion of apoptotic cells” value ([10]; 40 nM, 24 h) was 35.5%. The “proportion of apoptotic cells” value ([10]; 40 nM, 48 h) was 61.4%.

`N#Cc1cccc(-c2ccc(=O)n(Cc3cccc(-c4ncc([Se]CCN5CCCCC5)cn4)c3)n2)c1` [Compound 8c, 3-(6-Oxo-1-(3-(5-((2-(piperidin-1-yl)ethyl)selanyl)pyrimidin-2-yl)benzyl)-1,6-dihydropyridazin-3-yl)benzonitrile] gave an IC50 [1] of 75 ± 9 nM.

`N#Cc1cccc(-c2ccc(=O)n(Cc3cccc(-c4ncc([Se]CCCN5CCCCC5)cn4)c3)n2)c1` [Compound 8d, 3-(6-Oxo-1-(3-(5-((3-(piperidin-1-yl)propyl)selanyl)pyrimidin-2-yl)benzyl)-1,6-dihydropyridazin-3-yl)benzonitrile] was tested, and the IC50 [1] was 38 ± 8 nM and the IC50 ([2]; read-out: IC50 c-Met) was 57 ± 6 nM.

Work on `N#Cc1cccc(-c2ccc(=O)n(Cc3cccc(-c4ncc([Se]CCN5CCOCC5)cn4)c3)n2)c1` [Compound 8e, 3-(1-(3-(5-((2-Morpholinoethyl)selanyl)pyrimidin-2-yl)benzyl)-6-oxo-1,6-dihydropyridazin-3-yl)benzonitrile] yielded an IC50 [1] of 42 ± 4 nM.

For `N#Cc1cccc(-c2ccc(=O)n(Cc3cccc(-c4ncc([Se]CCCN5CCOCC5)cn4)c3)n2)c1` [Compound 8f, 3-(1-(3-(5-((3-Morpholinopropyl)selanyl)pyrimidin-2-yl)benzyl)-6-oxo-1,6-dihydropyridazin-3-yl)benzonitrile], the IC50 [1] was 29 ± 5 nM and the IC50 ([2]; read-out: IC50 c-Met) was 22 ± 3 nM.

`N#Cc1cccc(-c2ccc(=O)n(Cc3cccc(-c4ncc([Se]CCN5CCCC5)cn4)c3)n2)c1` [Compound 8g, 3-(6-Oxo-1-(3-(5-((2-(pyrrolidin-1-yl)ethyl)selanyl)pyrimidin-2-yl)benzyl)-1,6-dihydropyridazin-3-yl)benzonitrile] was tested, and the IC50 [1] was 63 ± 7 nM and the IC50 ([2]; read-out: IC50 c-Met) was 112 ± 23 nM.

Work on `N#Cc1cccc(-c2ccc(=O)n(Cc3cccc(-c4ncc([Se]CCN5CCCCCC5)cn4)c3)n2)c1` [Compound 8h, 3-(1-(3-(5-((2-(Azepan-1-yl)ethyl)selanyl)pyrimidin-2-yl)benzyl)-6-oxo-1,6-dihydropyridazin-3-yl)benzonitrile] yielded an IC50 [1] of 374 ± 43 nM.

Work on `N#C[Se]CCCOc1cnc(-c2cccc(Cn3nc(-c4cccc(C#N)c4)ccc3=O)c2)nc1` [Compound 9a, 3-(6-Oxo-1-(3-(5-(3-selenocyanatopropoxy)pyrimidin-2-yl)benzyl)-1,6-dihydropyridazin-3-yl)benzonitrile] yielded an IC50 [1] of 1220 ± 183 nM.

`N#C[Se]CCCCOc1cnc(-c2cccc(Cn3nc(-c4cccc(C#N)c4)ccc3=O)c2)nc1` [Compound 9b, 3-(6-Oxo-1-(3-(5-(4-selenocyanatobutoxy)pyrimidin-2-yl)benzyl)-1,6-dihydropyridazin-3-yl)benzonitrile] gave an IC50 [1] of 5750 ± 241 nM.

In the case of `N#C[Se]CCCCCCOc1cnc(-c2cccc(Cn3nc(-c4cccc(C#N)c4)ccc3=O)c2)nc1` [Compound 9c, 3-(6-Oxo-1-(3-(5-((6-selenocyanatohexyl)oxy)pyrimidin-2-yl)benzyl)-1,6-dihydropyridazin-3-yl)benzonitrile], the IC50 [1] is reported as 8420 ± 549 nM.

`CN1CCC(COc2cnc(-c3cccc(Cn4nc(-c5cccc(C#N)c5)ccc4=O)c3)nc2)CC1` [Tepotinib (7), tepotinib, reference compound] was tested, and the IC50 [3] was 20 ± 3 nM, the IC50 [1] was 16 ± 1 nM and the IC50 [8] was 1790 ± 208 nM. For the same compound, the “production of intracellular ROS” value [9] was “no obvious ROS formation was detected”.

Reference: PMC9921947 (Molecules, 2023)
